Key:
Beagle dogs = experiment: Subchronic toxicity test in Beagle dogs: hematology; format: in vivo
Description: HZ1006 was administered orally to dogs (four/sex/group) at doses of 80, 40, 20, 5 and 0 (control) mg/kg/day, and the dosage volume was 2 mL/kg. The dogs received test doses with the exact amounts on a weekly basis based on current body weights. […] The other dogs in the above groups were dissected on the planned days. For the other groups, half of the dogs were anatomized on d28 and the remaining half on d42.
The following indexes were examined for the dogs used in the study, twice during the pre-dosage period and on d14, d28 and d42. The following parameters were evaluated on d28 and d42 for the rats in the study:
Blood samples of the animals were collected in tubes containing ethylenediamine tetraacetic acid (EDTA) and tested using an ADVIA2120 Hematology Autoanalyzer (Bayer, Leverkusen, Germany). The following indexes were examined: hemoglobin concentration (Hb), red blood cell count (RBC),mean corpuscular volume (MCV), hematocrit (HCT), mean corpuscular hemoglobin concentration (MCHC), mean corpuscular hemoglobin (MCH), white blood cell count (WBC), platelet count (Plt), WBC differential counts [neutrophilcyte (Neu), eosinophilic granulocyte (Eos), basophilic leukocyte (Bas), lymphocyte (Lym), and monocyte (Mon)] and reticulocytes (Ret). The serum coagulation times of the blood samples (1.8-mL samples were mixed with 0.2 mL sodium citrate), including prothrombin time (PT), fibrinogen (FIB), activated partial thromboplastin time (APTT), and thrombin time (TT), were tested using an MC10 plus Blood Coagulation Analyzer from Shanghai San Jose Medical Products Co., Ltd. (Shanghai, China).

SD rats = experiment: Subchronic toxicity test in SD rats: clinical observation, body weight; format: in vivo; conditions: for body weight reduced compared with the control group: male rats, 120 mg/kg oral daily
Description: The rats that were judged suitable for the subchronic toxicity study were randomly divided into four groups (10 rats/sex/group). The rats received the test sample by gavage once daily for 28 days. HZ1006 was administered to the rats at doses of 120, 60, 20 and 0 (control) mg/kg, and the dosage volume was 5 mL/kg. Half of the 80 rats (half male and half female) were selected randomly according to body weight and dissected at d28. The remaining rats were dissected at d42.
Clinical symptoms and mortality were examined at least twice daily during the 42-day period, which included any changes in reaction to treatment, behavior, illness, food consumption, and body weight. Breathing rates, rectal temperature and pupil changes in the Beagle dogs were assessed once every 2 weeks.

[1] = dog ♀6 (80 mg/kg/day oral), d0 (pre-dose)
[2] = dog ♀6 (80 mg/kg/day oral), d14 line (moribund, euthanized d8)
[3] = dog ♀28 (40 mg/kg/day oral), d0 (pre-dose)
[4] = dog ♀28 (40 mg/kg/day oral), d14 (died d16)
[5] = dogs, 5 mg/kg/day oral, d0 (pre-dose)
[6] = dogs, 5 mg/kg/day oral, d42 (recovery)
[7] = dogs, 20 mg/kg/day oral, d0 (pre-dose)
[8] = dogs, 20 mg/kg/day oral, d42 (recovery)
[9] = dogs, 40 mg/kg/day oral, d0 (pre-dose)
[10] = dogs, 40 mg/kg/day oral, d42 (recovery)
[11] = dogs, 80 mg/kg/day oral, d0 (pre-dose)
[12] = dogs, 80 mg/kg/day oral, d42 (recovery)

Compound: CCCCCCCNc1cc(/C=C/C(=O)NO)ccc1OCCN(CC)CC [HZ1006]
- APTT: Activated partial thromboplastin time (Beagle dogs; [1]): 13.9 s
- RET: Reticulocytes (Beagle dogs; [1]): 1.37%
- APTT: Activated partial thromboplastin time (Beagle dogs; [2]): 48.7 s
- RET: Reticulocytes (Beagle dogs; [2]): 0.14%
- APTT: Activated partial thromboplastin time (Beagle dogs; [3]): 12.4 s
- RET: Reticulocytes (Beagle dogs; [3]): 0.75%
- APTT: Activated partial thromboplastin time (Beagle dogs; [4]): 18.5 s
- RET: Reticulocytes (Beagle dogs; [4]): 0.04%
- APTT: Activated partial thromboplastin time (Beagle dogs; [5]): 13.6 ± 0.6 s
- FIB: Fibrinogen (Beagle dogs; [5]): 2.25 ± 0.37 g/L
- HCT: Hematocrit (Beagle dogs; [5]): 43.0 ± 2.6%
- HGB: Hemoglobin concentration (Beagle dogs; [5]): 139 ± 8 g/L
- MON: Monocyte (Beagle dogs; [5]): 4.4 ± 1.6%
- RBC: Red blood cell count (Beagle dogs; [5]): 6.31 ± 0.45 ×10^12/L
- RET: Reticulocytes (Beagle dogs; [5]): 0.77 ± 0.38%
- APTT: Activated partial thromboplastin time (Beagle dogs; dogs, 5 mg/kg/day oral, d14): 13.2 ± 0.6 s
- FIB: Fibrinogen (Beagle dogs; dogs, 5 mg/kg/day oral, d14): 2.53 ± 0.46 g/L
- HCT: Hematocrit (Beagle dogs; dogs, 5 mg/kg/day oral, d14): 41.8 ± 2.7%
- HGB: Hemoglobin concentration (Beagle dogs; dogs, 5 mg/kg/day oral, d14): 138 ± 9 g/L
- MON: Monocyte (Beagle dogs; dogs, 5 mg/kg/day oral, d14): 4.2 ± 1.0%
- RBC: Red blood cell count (Beagle dogs; dogs, 5 mg/kg/day oral, d14): 6.23 ± 0.46 ×10^12/L
- RET: Reticulocytes (Beagle dogs; dogs, 5 mg/kg/day oral, d14): 0.62 ± 0.29%
- APTT: Activated partial thromboplastin time (Beagle dogs; dogs, 5 mg/kg/day oral, d28): 13.1 ± 0.5 s
- FIB: Fibrinogen (Beagle dogs; dogs, 5 mg/kg/day oral, d28): 2.56 ± 0.40 g/L
- HCT: Hematocrit (Beagle dogs; dogs, 5 mg/kg/day oral, d28): 41.6 ± 2.4%
- HGB: Hemoglobin concentration (Beagle dogs; dogs, 5 mg/kg/day oral, d28): 135 ± 8 g/L
- MON: Monocyte (Beagle dogs; dogs, 5 mg/kg/day oral, d28): 4.4 ± 1.4%
- RBC: Red blood cell count (Beagle dogs; dogs, 5 mg/kg/day oral, d28): 6.22 ± 0.43 ×10^12/L
- RET: Reticulocytes (Beagle dogs; dogs, 5 mg/kg/day oral, d28): 0.49 ± 0.23%
- APTT: Activated partial thromboplastin time (Beagle dogs; [6]): 13.4 ± 0.4 s
- FIB: Fibrinogen (Beagle dogs; [6]): 2.89 ± 0.60 g/L
- HCT: Hematocrit (Beagle dogs; [6]): 41.0 ± 1.8%
- HGB: Hemoglobin concentration (Beagle dogs; [6]): 134 ± 7 g/L
- MON: Monocyte (Beagle dogs; [6]): 4.0 ± 1.2%
- RBC: Red blood cell count (Beagle dogs; [6]): 6.21 ± 0.36 ×10^12/L
- RET: Reticulocytes (Beagle dogs; [6]): 0.61 ± 0.22%
- APTT: Activated partial thromboplastin time (Beagle dogs; [7]): 12.4 ± 0.3 s
- FIB: Fibrinogen (Beagle dogs; [7]): 4.07 ± 0.94 g/L
- HCT: Hematocrit (Beagle dogs; [7]): 42.2 ± 3.9%
- HGB: Hemoglobin concentration (Beagle dogs; [7]): 142 ± 13 g/L
- MON: Monocyte (Beagle dogs; [7]): 4.7 ± 1.3%
- RBC: Red blood cell count (Beagle dogs; [7]): 6.20 ± 0.58 ×10^12/L
- RET: Reticulocytes (Beagle dogs; [7]): 0.96 ± 0.24%
- APTT: Activated partial thromboplastin time (Beagle dogs; dogs, 20 mg/kg/day oral, d14): 12.5 ± 0.5 s
- FIB: Fibrinogen (Beagle dogs; dogs, 20 mg/kg/day oral, d14): 4.30 ± 1.17 g/L
- HCT: Hematocrit (Beagle dogs; dogs, 20 mg/kg/day oral, d14): 36.9 ± 2.2 %
- HGB: Hemoglobin concentration (Beagle dogs; dogs, 20 mg/kg/day oral, d14): 118 ± 7 g/L
- MON: Monocyte (Beagle dogs; dogs, 20 mg/kg/day oral, d14): 8.0 ± 2.3 %
- RBC: Red blood cell count (Beagle dogs; dogs, 20 mg/kg/day oral, d14): 5.57 ± 0.30 ×10^12/L
- RET: Reticulocytes (Beagle dogs; dogs, 20 mg/kg/day oral, d14): 0.53 ± 0.23 %
- APTT: Activated partial thromboplastin time (Beagle dogs; dogs, 20 mg/kg/day oral, d28): 12.0 ± 0.7 s
- FIB: Fibrinogen (Beagle dogs; dogs, 20 mg/kg/day oral, d28): 4.48 ± 1.68 g/L
- HCT: Hematocrit (Beagle dogs; dogs, 20 mg/kg/day oral, d28): 36.6 ± 1.0 %
- HGB: Hemoglobin concentration (Beagle dogs; dogs, 20 mg/kg/day oral, d28): 118 ± 3 g/L
- MON: Monocyte (Beagle dogs; dogs, 20 mg/kg/day oral, d28): 9.0 ± 1.4 %
- RBC: Red blood cell count (Beagle dogs; dogs, 20 mg/kg/day oral, d28): 5.57 ± 0.16 ×10^12/L
- RET: Reticulocytes (Beagle dogs; dogs, 20 mg/kg/day oral, d28): 0.54 ± 0.19 %
- APTT: Activated partial thromboplastin time (Beagle dogs; [8]): 12.8 ± 0.3 s
- FIB: Fibrinogen (Beagle dogs; [8]): 4.26 ± 0.49 g/L
- HCT: Hematocrit (Beagle dogs; [8]): 39.4 ± 1.7%
- HGB: Hemoglobin concentration (Beagle dogs; [8]): 128 ± 8 g/L
- MON: Monocyte (Beagle dogs; [8]): 5.8 ± 1.0%
- RBC: Red blood cell count (Beagle dogs; [8]): 5.96 ± 0.13 ×10^12/L
- RET: Reticulocytes (Beagle dogs; [8]): 0.83 ± 0.23%
- APTT: Activated partial thromboplastin time (Beagle dogs; [9]): 12.8 ± 0.5 s
- FIB: Fibrinogen (Beagle dogs; [9]): 4.84 ± 0.89 g/L
- HCT: Hematocrit (Beagle dogs; [9]): 41.7 ± 2.0%
- HGB: Hemoglobin concentration (Beagle dogs; [9]): 139 ± 6 g/L
- MON: Monocyte (Beagle dogs; [9]): 6.0 ± 1.8%
- RBC: Red blood cell count (Beagle dogs; [9]): 6.01 ± 0.31 ×10^12/L
- RET: Reticulocytes (Beagle dogs; [9]): 0.86 ± 0.17%
- APTT: Activated partial thromboplastin time (Beagle dogs; dogs, 40 mg/kg/day oral, d14): 16.8 ± 0.7 s
- FIB: Fibrinogen (Beagle dogs; dogs, 40 mg/kg/day oral, d14): 7.19 ± 1.58 g/L
- HCT: Hematocrit (Beagle dogs; dogs, 40 mg/kg/day oral, d14): 35.5 ± 2.6 %
- HGB: Hemoglobin concentration (Beagle dogs; dogs, 40 mg/kg/day oral, d14): 114 ± 8 g/L
- MON: Monocyte (Beagle dogs; dogs, 40 mg/kg/day oral, d14): 9.2 ± 5.3%
- RBC: Red blood cell count (Beagle dogs; dogs, 40 mg/kg/day oral, d14): 5.6 ± 0.36 ×10^12/L
- RET: Reticulocytes (Beagle dogs; dogs, 40 mg/kg/day oral, d14): 0.13 ± 0.11 %
- APTT: Activated partial thromboplastin time (Beagle dogs; dogs, 40 mg/kg/day oral, d28): 12.8 ± 0.8 s
- FIB: Fibrinogen (Beagle dogs; dogs, 40 mg/kg/day oral, d28): 4.93 ± 1.22 g/L
- HCT: Hematocrit (Beagle dogs; dogs, 40 mg/kg/day oral, d28): 32.8 ± 2.8 %
- HGB: Hemoglobin concentration (Beagle dogs; dogs, 40 mg/kg/day oral, d28): 105 ± 9 g/L
- MON: Monocyte (Beagle dogs; dogs, 40 mg/kg/day oral, d28): 11.6 ± 4.5 %
- RBC: Red blood cell count (Beagle dogs; dogs, 40 mg/kg/day oral, d28): 5.00 ± 0.47 ×10^12/L
- RET: Reticulocytes (Beagle dogs; dogs, 40 mg/kg/day oral, d28): 0.51 ± 0.22 %
- APTT: Activated partial thromboplastin time (Beagle dogs; [10]): 12.9 ± 0.8 s
- FIB: Fibrinogen (Beagle dogs; [10]): 4.22 ± 1.25 g/L
- HCT: Hematocrit (Beagle dogs; [10]): 39.7 ± 0.1%
- HGB: Hemoglobin concentration (Beagle dogs; [10]): 124 ± 1 g/L
- MON: Monocyte (Beagle dogs; [10]): 6.4 ± 3.5%
- RBC: Red blood cell count (Beagle dogs; [10]): 5.96 ± 0.06 ×10^12/L
- RET: Reticulocytes (Beagle dogs; [10]): 0.89 ± 0.65%
- APTT: Activated partial thromboplastin time (Beagle dogs; [11]): 13.4 ± 0.6 s
- FIB: Fibrinogen (Beagle dogs; [11]): 3.80 ± 0.84 g/L
- HCT: Hematocrit (Beagle dogs; [11]): 40.3 ± 3.0%
- HGB: Hemoglobin concentration (Beagle dogs; [11]): 134 ± 10 g/L
- MON: Monocyte (Beagle dogs; [11]): 5.0 ± 0.8%
- RBC: Red blood cell count (Beagle dogs; [11]): 5.92 ± 0.42 ×10^12/L
- RET: Reticulocytes (Beagle dogs; [11]): 0.92 ± 0.27%
- APTT: Activated partial thromboplastin time (Beagle dogs; dogs, 80 mg/kg/day oral, d14): 16.2 ± 3.0 s
- FIB: Fibrinogen (Beagle dogs; dogs, 80 mg/kg/day oral, d14): 7.06 ± 2.14 g/L
- HCT: Hematocrit (Beagle dogs; dogs, 80 mg/kg/day oral, d14): 33.4 ± 2.6 %
- HGB: Hemoglobin concentration (Beagle dogs; dogs, 80 mg/kg/day oral, d14): 107 ± 8 g/L
- MON: Monocyte (Beagle dogs; dogs, 80 mg/kg/day oral, d14): 19.7 ± 19.7 %
- RBC: Red blood cell count (Beagle dogs; dogs, 80 mg/kg/day oral, d14): 5.09 ± 0.42 ^##^,* ×10^12/L
- RET: Reticulocytes (Beagle dogs; dogs, 80 mg/kg/day oral, d14): 0.08 ± 0.12 %
- APTT: Activated partial thromboplastin time (Beagle dogs; dogs, 80 mg/kg/day oral, d28): 12.5 ± 0.5 s
- FIB: Fibrinogen (Beagle dogs; dogs, 80 mg/kg/day oral, d28): 6.69 ± 0.62 g/L
- HCT: Hematocrit (Beagle dogs; dogs, 80 mg/kg/day oral, d28): 26.9 ± 1.7 %
- HGB: Hemoglobin concentration (Beagle dogs; dogs, 80 mg/kg/day oral, d28): 86 ± 5 g/L
- MON: Monocyte (Beagle dogs; dogs, 80 mg/kg/day oral, d28): 12.5 ± 2.9 %
- RBC: Red blood cell count (Beagle dogs; dogs, 80 mg/kg/day oral, d28): 4.17 ± 0.33 ×10^12/L
- RET: Reticulocytes (Beagle dogs; dogs, 80 mg/kg/day oral, d28): 0.21 ± 0.16 %
- APTT: Activated partial thromboplastin time (Beagle dogs; [12]): 12.7 ± 0.9 s
- FIB: Fibrinogen (Beagle dogs; [12]): 3.72 ± 2.00 g/L
- HCT: Hematocrit (Beagle dogs; [12]): 37.5 ± 3.1%
- HGB: Hemoglobin concentration (Beagle dogs; [12]): 126 ± 4 g/L
- MON: Monocyte (Beagle dogs; [12]): 5.0 ± 1.9%
- RBC: Red blood cell count (Beagle dogs; [12]): 5.71 ± 0.50 ×10^12/L
- RET: Reticulocytes (Beagle dogs; [12]): 0.88 ± 0.27%
- body weight reduced compared with the control group (SD rats; week 4): 8%
- body weight reduced compared with the control group (SD rats; week 5): 15%
- survival (SD rats; rats, 20-120 mg/kg oral daily, 28 days + 14-day recovery): All rats survived until the scheduled necropsies
